The record followed here is PMC10394814, “Discovery and evaluation of active compounds from Xuanfei Baidu formula against COVID-19 via SARS-CoV-2 M^pro” (Chinese Medicine, 2023).

Assay [1] deals with Omicron BA.1.1 variant. Kind of assay: Antiviral activity assay (CPE) in Vero E6 cells, Omicron BA.1.1. The format is cell-based, SARS-CoV-2.
The test system of assay [2] is Omicron BA.2.3 variant. Kind of assay: Antiviral activity assay (CPE) in Vero E6 cells, Omicron BA.2.3. It is filed as cell-based, SARS-CoV-2.

One may read the EC50 as the midpoint of the concentration-response curve. Lower therefore signals an effect from little substance.

On to `Cn1cnc(Cn2c(=O)[nH]/c(=N\c3cc4cn(C)nc4cc3Cl)n(Cc3cc(F)c(F)cc3F)c2=O)n1` [S-217622, reference compound], for which the EC50 was 120 nM in assay [1] and 235 nM in assay [2].
